Test system: aP2 mRNA production
Experiment: aP2 assay for agonist (induction of aP2 mRNA production, bDNA assay)
Format: cell-based
Settings: preadipocytes

CCCCCCN1C(=O)C(CCOc2ccccc2CC(=O)O)Oc2ccccc21 (stereo not shown) [Compound 1, Benzeneacetic acid, 2-[2-(4-hexyl-3,4-dihydro-3-oxo-2H-1,4-benzoxazin-2-yl)ethoxy]-]
Agonist Intrinsic Activity: 40.4 fold increase over vehicle
